How the values were obtained:
ECs = assay: Proliferation of ECs in response to VEGF-A stimulation (thrombin/MMP inhibitors); format: cell-based
Description: (§1) Since some MMPs (MMP-9) is/are constitutively expressed and prothrombin synthesis and secretion might be induced by VEGF-A, prothrombin can cleaved to thrombin by an MMP, e.g., MMP-9 and thrombin, in turn, generates C5a from locally produced C5. The MMP inhibitor alternatively could exert its inhibitory effect on VEGF-A induced EC growth by the pathway that couples C3aR/C5aR signal transduction back to VEGFR2.

T cell = T cell activation in response to anti-CD3/28 stimulation; format: cell-based
Description: as §1

C3aR−/−C5aR−/− ECs = assay: Growth of C3aR-/-C5aR-/- primary ECs; format: cell-based, mice; settings: without or with added C5a
HUVEC = assay: Complement mRNA transcripts in HUVEC by qPCR; format: cell-based; settings: added C3a or C5a
Protocol: FIG. 33 illustrates charts showing qRT-PCR analysis of C3, factor B and factor D transcripts from HUVEC under hypoxia. A) HUVEC treated with TNF-α, IL-1, and IFN-γ. Blue bars represent samples after treatment. B-C) HUVEC stimulated with C3a (10 ng/ml for 2 hr) or C5a (10 ng/ml for 30 min) Blue bars represent control without C3a/C5a stimulation while red bars represent samples after stimulation. D) HUVEC incubated for 1 hr with FCCP+IAA. Blue bars represent control without hypoxia treatment while yellow bars represent two samples after hypoxia treatment.
We next conversely assessed how transducing C3aR/C5aR signals into ECs affects endogenous EC complement production and whether it is connected with “classical” EC responses. We incubated HUVEC with 1) inflammatory cytokines, 2) the mitochondrial uncoupler protonophore carbonyl cyanide p-(trifluoromethoxy)phenylhydrazone (FCCP)+iodoacetate (IAA) (which mimics hypoxia), or 3) C3a or C5a, after which we assayed complement mRNA transcripts by qPCR. […]
ECs and leukocytes locally synthesize C3/fB/fD/C5 and the elicited C3a/C5a signal through C3aR/C5aR on the same cells to amplify this synthesis. To determine whether ECs locally synthesize AP complement components, we added IL-1/IFN-γ/TNF-α to HUVEC, 1 hr after which we quantified C3 and fB transcripts by qPCR. […]

MS-1 ECs = assay: Growth of MS-1 ECs with VEGF-A or IL-6; format: cell-based, murine; settings: IL-6 alone
Protocol: FIG. 27 illustrates plots showing the growth of ECs in response to VEGF induces C3aR/C5aR signaling via an IL-6 and Stat3 dependent mechanism. VEGF-A was added to serum starved MS-1 cells in the absence or presence of anti-IL-6 neutralizing mAb (2 μg/ml) and growth was quantified at 24, […] and 72 hr.
FIG. 28 illustrates plots showing the growth of serum starved MS-1 cells in the absence or presence of C3aR-A/C5aR-A (10 ng/ml each) and IL-6 (10 ng/ml) at 24, 48 and 72 hr.
For studies with bEnd.3 and MS-1 cells, 5×10^4 cells were plated in 24-well plates and allowed to adhere for 24 hr. Following culturing in 0.5% FBS with DMEM for another 24 hours, the cells were treated as described in the FIG. legends. Growth was quantified manually at 24, 48 and 72 hr with trypan blue. At least 95% of cells were viable in all experiments. VEGF-A was used at a concentration of 30 ng/ml, C3a and C5a at 1 ug/ml, and […] at I ug/ml.
Numerous past studies have linked VEGF with both IL-6 and p-Stat3 our prior studies by ourselves has shown that C5a induces IL-6 and that IL-6 signaling is interconnected with C3aR/C5aR signaling. To determine if the linkage between VEGF and C3aR/C5aR signaling in ECs involves IL-6, we incubated MS-1 ECs with 1) VEGF-A alone, IL-6 alone, or VEGF-A plus anti-IL-6 mAb, or with 2) IL-6 alone or IL-6 plus C3aR-A/C5aR-A, and assayed cell growth. […]

Stat3 = Stat3 phosphorylation in serum starved MS-1 cells; format: cell-based, murine; settings: growth factor alone
Protocol: FIG. 29 illustrates a chart showing phosphor-Stat3 of serum starved MS-1 cells incubated for 10 min at 37° C. with VEGF-A or IL-6 in the absence or presence of anti-IL-6 mAb or C3aR-A/C5aR-A.
Numerous past studies have linked VEGF with both IL-6 and p-Stat3 our prior studies by ourselves has shown that C5a induces IL-6 and that IL-6 signaling is interconnected with C3aR/C5aR signaling. To determine if the linkage between VEGF and C3aR/C5aR signaling in ECs involves IL-6, we incubated MS-1 ECs with 1) VEGF-A alone, IL-6 alone, or VEGF-A plus anti-IL-6 mAb, or with 2) IL-6 alone or IL-6 plus C3aR-A/C5aR-A, and assayed cell growth. […] The growth induction of ECs of IL-6, like that of VEGF-A, was abolished by C3aR-A/C5aR-A (FIG. 28). Both VEGF-A and IL-6 induced Stat3 phosphorylation and the Stat3 phosphorylation in both cases was abolished by C3aR/C5aR antagonism (FIG. 29). […] These finding thus indicate that VEGF interconnects with C3aR/C5aR signaling via the induction of IL-6 and its activation of Stat3.

NIH-3T3 cells [1] = assay: TGF-β1 production and effect in PDGF-AA treated NIH-3T3 cells; format: cell-based
Description: Antagonizing C3aR/C5aR signal transduction induces the synthesis and activation of TGF-β1. We investigated whether TGF-β1 production might underlie the growth suppression connected with C3aR/C5aR blockade. To test this, 1) we assayed supernatants from NIH-3T3 cells treated with PDGF-AA+anti-C3a/anti-C5a mAbs and 2) following removal of anti-C3a/anti-C5a from the mAb treated NIH-3T3 cell cultures (with protein-G beads), we added supernatants without or with anti-TGF-β1 blocking antibody to fresh cultures of PDGF-AA treated NIH-3T3 cells. […] Activation of latent TGF-β1 can be dependent on Thrombospondin 1 (Tsp-1). […] Collectively, these findings indicate that 1) disruption of C3aR/C5aR signaling evokes TGF-β1 production, 2) TGF-β1 enters into an autocrine signaling loop, and 3) C3aR/C5aR signals and TGF-β1 signals oppose each other in regulating PDGF induced growth.

NIH-3T3 cells [2] = assay: C5a ELISA of NIH-3T3 culture supernatants; format: cell-based; settings: PDGF-AA treated cells
Protocol: FIG. 31 illustrates charts showing: (A) C5a (17 ng/mL) added to NIH-3T3 cells. Bars represent 72 hr counts. (B) PDGF-AA was added to NIH-3T3 cells and a 72 hr culture supernatants were assayed for C5a by ELISA.
PDGF contributes to atherogenesis and plays a central role in neointimal proliferation following EC injury. In view of the growth difference of primary cultured Daf1^−/−, WT, C3aR^−/−C5aR^−/−, and C3^−/−C5^−/−SMCs, we examined whether C3aR/C5aR signals are interconnected with PDGF growth induction. For these studies, we utilized NIH-3T3 fibroblasts (which express PDGFR-αα) in conjunction with PDGF-AA. Following determination of optimal PDGF-AA doses, we incubated 1×10^5 cells/well in triplicate with 30 ng/ml of PDGF-AA±10 ng/ml of C3aR and C5aR antagonists (C3aR-A/C5aR-A), 10 ng/ml of anti-C3a/anti-C5a mAbs or respective controls, after which we quantified cell growth by counting cell numbers over time. […] To directly establish whether C5aR signals augment PDGF-AA growth signaling, we 1) quantified the effect of added C5a one growth, and 2) assayed C5a in culture supernatants of PDGF-AA treated cells. […] Because the dependence of PDGF growth induction on C3aR/C5aR signaling could be indirect, i.e., a consequence of its requirement for viability, we performed cell cycle assays.

Molecule: NC(N)=NCCC[C@H](NC(=O)[C@@H]1CCCN1C(=O)[C@H](N)Cc1ccccc1)C(=O)CCl [PPACK]
- proliferation of ECs / VEGF induced EC growth induction (ECs): abolish
- T cell activation (T cell): virtually abolish

Molecule: Cc1cc(C)c(/C=C2\C(=O)Nc3ccccc32)[nH]1 [SU5416]
- growth of C3aR−/−C5aR−/− ECs (C3aR−/−C5aR−/− ECs): abolished

Molecule: ANGIOMAX: thrombin specific inhibitor
- proliferation of ECs / VEGF induced EC growth induction (ECs): abolish
- T cell activation (T cell): virtually abolish

Molecule: C3a: complement activation fragment (anaphylatoxin) added to cells
- production of AP components by ECs (HUVEC): more AP components
- transcription of C3 (HUVEC): increased

Molecule: IL-6: cytokine added to MS-1 cells (10 ng/ml)
- induction of EC growth (MS-1 ECs): comparably to VEGF-A
- Stat3 phosphorylation (Stat3): induced

Molecule: PDGF-AA: platelet derived growth factor, 30 ng/ml
- suppression of TGF-β1 mRNA transcription (NIH-3T3 cells [1]; RT-PCR of PDGF-AA treated cells): ~3 fold
- C5a generation by NIH-3T3 cells (NIH-3T3 cells [2]): amplified

Molecule: TGF-β1: active TGF-β1 elicited in supernatants of mAb treated NIH-3T3 cells
- suppression of PDGF-AA induced growth (NIH-3T3 cells [1]; elicited TGF-β1 in transferred supernatants): 5 fold
